The experiment addresses T1, recombinant JAK2 (Homo sapiens, UniProt O60674).
T1 construct: purchased Upstate Cell Signaling Solutions
The experiment in a line: IC50 value determinations for Jak2 kinase, luminescence-based kinase assay (Kinase-Glo). It is filed as biochemical. Background: In Kinase-Glo more light means more ATP remaining.

Setting [1] is: Table 5, Initial Screening Hits for JAK2.

Results on 31 compounds are retold here after patent publication US8604042B2, “Bi-aryl meta-pyrimidine inhibitors of kinases” (TargeGen, Inc., priority 2005, dated 2013).

Counter-ions that a name gives are not always drawn. Some results are limits rather than exact numbers.

T1 sequence (O60674 808-1132 limits assumed): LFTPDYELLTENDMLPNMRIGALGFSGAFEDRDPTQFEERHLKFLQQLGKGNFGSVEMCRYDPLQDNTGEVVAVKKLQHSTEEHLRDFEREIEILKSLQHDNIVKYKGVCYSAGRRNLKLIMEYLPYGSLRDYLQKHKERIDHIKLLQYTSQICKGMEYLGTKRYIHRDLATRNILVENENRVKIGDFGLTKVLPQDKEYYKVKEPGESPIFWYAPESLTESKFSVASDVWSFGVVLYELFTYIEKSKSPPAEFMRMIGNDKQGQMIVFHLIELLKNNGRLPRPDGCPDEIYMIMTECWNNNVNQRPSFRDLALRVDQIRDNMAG
Experimental: The IC50 values for compounds were determined using a luminescence-based kinase assay with recombinant JAK2 obtained from Upstate Cell Signaling Solutions. In white, flat bottom, 96-well plates (Nunc) parallel assays were run at room temperature at a final volume of 50 μL.
Two control reactions were also ran: one reaction containing no compound and the second containing neither inhibitor nor peptide substrate. IC50 values were derived from experimental data using the non-linear curve fitting capabilities of Prism (Version 4; GraphPad Software).

In the case of `Cc1cc(C)cc(Nc2nc(Nc3ccc(OC4CCNCC4)cc3)ncc2C)c1` [5-methyl-N4-(3,5-dimethylphenyl)-N2-(4-(piperidin-4-yloxy)phenyl)pyrimidine-2,4-diamine hydrochloride], the IC50 (Table 1) was 37.2 nM.

Take `Cc1cnc(Nc2ccc(N3CCN(C)CC3)cc2)nc1Nc1ccc(C)c2[nH]ccc12` [5-methyl-N4-(7-methyl-1H-indol-4-yl)-N2-(4-(4-methylpiperazin-1-yl)phenyl)pyrimidine-2,4-diamine Hydrochloride]: the 50% inhibitory concentration (IC50) (Table 1) came out at 3.84 nM.

Take `Cc1cnc(Nc2ccc(OC3CCNCC3)cc2)nc1Nc1cccc(C(=O)N2CCCC2)c1` [(3-{5-Methyl-2-[4-(piperidin-4-yloxy)-phenylamino]-pyrimidin-4-ylamino}-phenyl)-pyrrolidin-1-yl-methanone]: where the note is “Table 1”, the IC50 turned out to be 113 nM.

On to `COc1cc(Nc2nc(Nc3ccc(OCCN4CCCC4)cc3)ncc2C#N)c(Cl)cc1Cl` [Compound 1], for which the IC50 under setting [1] was determined as 6240 nM.

For `COc1cc(Nc2nc(Nc3cccc(OCCN4CCCC4)c3)ncc2C#N)c(Cl)cc1Cl` [Compound 2], the IC50 under setting [1] was 10500 nM and the half-maximal inhibitory concentration (IC50) (Table 7, SAR for the P3 region) was determined as 10500 nM.

`COc1cc(Nc2nc(Nc3cccc(OCCN4CCCC4)c3)ncc2C)c(Cl)cc1Cl` [Compound 3]: the IC50 runs as follows: under setting [1], 2040 nM; (Table 7, SAR for the P3 region) 2040 nM.

Turning to `COc1cccc(Nc2ccnc(Nc3ccc(OCCN4CCCC4)cc3)n2)c1` [Compound 4], the IC50 (Table 6) came to 105 nM; the IC50 (Table 7, SAR for the P3 region) is 105 nM; the IC50 (Table 8, SAR of the P4 region) stood at 105 nM.

On to `COc1cccc(Nc2nc(Nc3ccc(OCCN4CCCC4)cc3)ncc2C)c1` [Compound 5], for which the 50% inhibitory concentration (IC50) by setting is: (Table 6) 53 nM; (Table 7, SAR for the P3 region) 53 nM.

As for `COc1cc(Nc2nc(Nc3ccc(OCCN4CCCC4)cc3)ncc2C)ccc1Cl` [Compound 6], the IC50 (Table 6) is 8 nM and the IC50 (Table 7, SAR for the P3 region) came out at 8 nM.

With `COc1ccc(Nc2ncc(C)c(Nc3cccc4c3OCO4)n2)cc1` [Compound 7], the IC50 (Table 7, SAR for the P3 region) came to 46 nM.

Turning to `Cc1nc(Nc2ccccc2)nc(Nc2cccc3c2OCO3)c1C` [Compound 8], under “Table 7, SAR for the P3 region”, the IC50 was > 10000 nM.

As for `Cc1cnc(Nc2ccc(N3CCN(C)CC3)cc2)nc1Nc1cc(C)c(Cl)c(C)c1` [Compound 38], under “Table 8, SAR of the P4 region”, the concentration for half-maximal inhibition (IC50) came to 12 nM.

For the compound `Cc1cnc(Nc2cccc(S(=O)(=O)NC(C)(C)C)c2)nc1Nc1cccc(S(=O)(=O)NC(C)(C)C)c1` [Compound 58], the IC50 (Table 9, SAR of the P2/P1 region) was found to be 707 nM.

In the case of `Cc1cnc(Nc2ccc(-n3cccn3)cc2)nc1Nc1cccc(C(C)(C)C)c1` [N2-(4-(1H-pyrazol-1-yl)phenyl)-N4-(3-tert-butylphenyl)-5-methylpyrimidine-2,4-diamine], the 50% inhibitory concentration (IC50) (Table 1) worked out at 151 nM.

Turning to `Cc1cnc(Nc2ccc(OCCN3CCCC3)cc2)nc1Nc1cccc(OC(F)(F)F)c1` [N2-(4-(2-(pyrrolidin-1-yl)ethoxy)phenyl)-5-methyl-N4-(3-(trifluoromethoxy)phenyl) pyrimidine-2,4-diamine], the IC50 (Table 1) is 20.7 nM.

As to `Cc1cnc(Nc2ccc(OCCN3CCCC3)cc2)nc1Nc1cccc([N+](=O)[O-])c1` [N2-(4-(2-(pyrrolidin-1-yl)ethoxy)phenyl)-5-methyl-N4-(3-nitrophenyl)pyrimidine-2,4-diamine Hydrochloride], where the note is “Table 1”, the IC50 came out at 61.1 nM.

For the compound `Cc1cnc(Nc2ccc(OCCN3CCCC3)cc2)nc1Nc1ccc(C)c2[nH]ccc12` [N2-(4-(2-(pyrrolidin-1-yl)ethoxy)phenyl)-5-methyl-N4-(7-methyl-1H-indol-4-yl)pyrimidine-2,4-diamine Hydrochloride], the IC50 (Table 1) was 6.98 nM.

As for `Cc1cnc(Nc2ccc(OCCN3CCCC3)cc2)nc1Nc1cccc2ccccc12` [N2-(4-(2-(pyrrolidin-1-yl)ethoxy)phenyl)-5-methyl-N4-(naphthalen-1-yl)pyrimidine-2,4-diamine Hydrochloride], the IC50 (Table 1) amounted to 20 nM.

Take `Cc1ccc(Nc2nc(Nc3ccc(OCCN4CCCC4)cc3)ncc2C)cc1` [N2-(4-(2-(pyrrolidin-1-yl)ethoxy)phenyl)-5-methyl-N4-p-tolylpyrimidine-2,4-diamine Hydrochloride]: where the note is “Table 1”, the IC50 was 35.7 nM.

Take `Cc1cnc(Nc2ccc(OCCN3CCCC3)cc2)nc1Nc1cccc2[nH]ccc12` [N2-(4-(2-(pyrrolidin-1-yl)ethoxy)phenyl)-N4-(1H-indol-4-yl)-5-methylpyrimidine-2,4-diamine Hydrochloride]: the 50% inhibitory concentration (IC50) (Table 1) stood at 19.2 nM.

With `Cc1cnc(Nc2ccc(OCCN3CCCC3)cc2)nc1Nc1cccc(C(F)(F)F)c1` [N2-(4-(2-(pyrrolidin-1-yl)ethoxy)phenyl)-N4-(3-(trifluoromethyl)phenyl)-5-methylpyrimidine-2,4-diamine], the concentration for half-maximal inhibition (IC50) (Table 1) was 17.6 nM.

With `Cc1cnc(Nc2ccc(OCCN3CCCC3)cc2)nc1Nc1cccc(C(C)(C)C)c1` [N2-(4-(2-(pyrrolidin-1-yl)ethoxy)phenyl)-N4-(3-tert-butylphenyl)-5-methylpyrimidine-2,4-diamine Hydrochloride], the half-maximal inhibitory concentration (IC50) (Table 1) amounted to 6.71 nM.

With `Cc1cnc(Nc2nc(Nc3ccc(OCCN4CCCC4)cc3)ncc2C)nc1Nc1cccc(C(C)(C)C)c1` [N2-(4-(2-(pyrrolidin-1-yl)ethoxy)phenyl)-N4-(4-(3-tert-butylphenylamino)-5-methylpyrimidin-2-yl)-5-methylpyrimidine-2,4-diamine Hydrochloride], the 50% inhibitory concentration (IC50) (Table 1) is 153 nM.

In the case of `Cc1cnc(Nc2ccc(OCCN3CCCC3)cc2)nc1Nc1ccc(C(F)(F)F)cc1` [N2-(4-(2-(pyrrolidin-1-yl)ethoxy)phenyl)-N4-(4-(trifluoromethyl)phenyl)-5-methylpyrimidine-2,4-diamine hydrochloride], where the note is “Table 1”, the IC50 amounted to 39.8 nM.

`Cc1cnc(Nc2ccc(OCCN3CCCC3)cc2)nc1Nc1ccc(Cl)c(C(F)(F)F)c1` [N2-(4-(2-(pyrrolidin-1-yl)ethoxy)phenyl)-N4-(4-chloro-3-(trifluoromethyl)phenyl)-5-methylpyrimidine-2,4-diamine]: the half-inhibitory concentration (IC50) (Table 1) was found to be 23.4 nM.

In the case of `Cc1cc(Nc2nc(Nc3ccc(OCCN4CCCC4)cc3)ncc2C)ccc1Cl` [N2-(4-(2-(pyrrolidin-1-yl)ethoxy)phenyl)-N4-(4-chloro-3-methylphenyl)-5-methylpyrimidine-2,4-diamine Hydrochloride], the half-inhibitory concentration (IC50) (Table 1) is 12.4 nM.

Take `Cc1cnc(Nc2ccc(OCCN3CCCC3)cc2)nc1Nc1ccc(Cl)c2[nH]ccc12` [N2-(4-(2-(pyrrolidin-1-yl)ethoxy)phenyl)-N4-(7-chloro-1H-indol-4-yl)-5-methylpyrimidine-2,4-diamine Hydrochloride]: the IC50 (Table 1) was determined as 1.16 nM.

On to `Cc1cnc(Nc2ccc(OCCN3CCCC3)cc2)nc1Nc1ccc(F)c2[nH]ccc12` [N2-(4-(2-(pyrrolidin-1-yl)ethoxy)phenyl)-N4-(7-fluoro-1H-indol-4-yl)-5-methylpyrimidine-2,4-diamine Hydrochloride], for which the IC50 (Table 1) was found to be 9.28 nM.

As for `Cc1cnc(Nc2ccc(OCCN3CCCC3)cc2)nc1Nc1nccc2ccccc12` [N2-(4-(2-(pyrrolidin-1-yl)ethoxy)phenyl)-N4-(isoquinolin-1-yl)-5-methylpyrimidine-2,4-diamine], for the setting “Table 1”, the 50% inhibitory concentration (IC50) was 1050 nM.

With `Cc1cnc(Nc2ccc(CN3CCOCC3)cc2)nc1Nc1cccc2[nH]ccc12` [N4-(1H-Indol-4-yl)-5-methyl-N2-(4-morpholin-4-ylmethyl-phenyl)-pyrimidine-2,4-diamine], the concentration for half-maximal inhibition (IC50) (Table 1) turned out to be 7.42 nM.

For the compound `Cc1cnc(Nc2ccc(CN3CCNCC3)cc2)nc1Nc1cccc2[nH]ccc12` [N4-(1H-Indol-4-yl)-5-methyl-N2-(4-piperazin-1-ylmethyl-phenyl)-pynmidine-2,4-diamine], the IC50 (Table 1) amounted to 10.1 nM.

As usually defined, the IC50 is the point on the concentration scale where inhibition reaches its midpoint.
